Experimental data as given in ChEMBL document CHEMBL1134106, “Novel heteroaryl replacements of aromatic 3-tetrafluoroethoxy substituents in trifluoro-3-(tertiaryamino)-2-propanols as potent inhibitors of cholesteryl ester transfer protein” (Bioorg Med Chem Lett, 2001).

Assays:
[1] = biological target: T1, Cholesteryl ester transfer protein (Homo sapiens, UniProt P11597); assay: Inhibition of recombinant human CETP mediated transfer of [3H]cholesteryl ester from HDL to LDL
T1 sequence (P11597 whole entry): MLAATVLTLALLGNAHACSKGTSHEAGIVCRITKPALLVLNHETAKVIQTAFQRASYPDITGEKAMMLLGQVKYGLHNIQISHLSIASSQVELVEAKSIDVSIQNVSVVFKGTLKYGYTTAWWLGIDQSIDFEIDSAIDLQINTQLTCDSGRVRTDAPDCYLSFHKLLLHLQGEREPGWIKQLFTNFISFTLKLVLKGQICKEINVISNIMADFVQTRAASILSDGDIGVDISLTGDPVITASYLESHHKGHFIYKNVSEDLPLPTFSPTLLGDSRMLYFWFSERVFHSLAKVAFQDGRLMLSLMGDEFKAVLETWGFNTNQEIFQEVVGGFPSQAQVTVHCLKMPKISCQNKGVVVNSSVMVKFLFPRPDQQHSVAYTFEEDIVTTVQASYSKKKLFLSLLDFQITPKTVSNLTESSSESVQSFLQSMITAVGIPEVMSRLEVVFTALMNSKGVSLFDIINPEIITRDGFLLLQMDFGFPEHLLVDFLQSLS

[2] = biological target: T1, Cholesteryl ester transfer protein; assay: In vitro human CETP inhibitory activity assessed by measuring the rate of [3H]cholesteryl ester ([3H]CE) from HDL donor particles to LDL acceptor particles using human serum by serum transfer assay

## OC(CN(Cc1cccc(-c2cccnc2)c1)c1cccc(Oc2ccccc2)c1)C(F)(F)F (configuration not stated)
[1]
  IC50: 14.3 µM

## Cc1ccc(CN(CC(O)C(F)(F)F)c2cccc(Oc3ccccc3)c2)cc1-c1ccco1 (configuration not stated)
[1]
  IC50: 3.96 µM

## OC(CN(Cc1cccc(-c2ccccc2)c1)c1cccc(Oc2ccccc2)c1)C(F)(F)F (configuration not stated)
[2]
  IC50: 47 µM
[1]
  IC50: 4.42 µM

## OC(CN(Cc1cccc(-c2cccs2)c1)c1cccc(Oc2ccccc2)c1)C(F)(F)F (configuration not stated)
[2]
  IC50: 83 µM
[1]
  IC50: 1.12 µM

## OC(CN(Cc1ccc(F)c(-c2ccco2)c1)c1cccc(Oc2ccccc2)c1)C(F)(F)F (configuration not stated)
[1]
  IC50: 0.72 µM
